Measurements published in patent publication US20250163069A1, “HETEROCYCLIC DERIVATIVE, AND PHARMACEUTICAL COMPOSITION AND APPLICATION THEREOF” (priority 2022, published 2025).
Read-outs that look alike come from different tables or passages of the source.

Key:
[1] = test system: HCMV; test: In vitro anti-HCMV activity, GFP reporter virus in MRC5 cells; type: cell-based, Human Cytomegalovirus
Experimental: (§1) Experimental method for in vitro biological activity study: The HCMV virus used in this experiment contains a reporter gene GFP. The inhibitory activity of the compounds against HCMV was detected by detecting the expression of GFP, and the cytotoxicity was also determined; the compounds were tested at 8 concentrations, with 3-fold gradient dilution, and double wells. MRC5 cells were seeded in microtiter plates at a certain density and cultured overnight at 37° C. in 5% CO2. The compounds and viruses were added the next day. […] The final concentration of DMSO in the cell culture medium was 0.5%, the cells were cultured at 37° C. in 5% CO2 for 7 days, the fluorescence value of each well was detected using Acumen, and the original data were used to calculate the antiviral activity of the compounds. The cytotoxicity experiment was the same as the antiviral experiment, but without viral infection; CCK-8 reagent was used to detect cell viability, and the original data were used to calculate the cytotoxicity of the compounds. Software GraphPad Prism was used to analyze the dose-response curves of the compounds and calculate the EC50 and CC50 values (see Table 1 for the results).

[2] = in vitro; type: cell-based; conditions: human
Experimental: as §1, with “compounds.” for “compounds. Software GraphPad Prism was used to analyze the dose-response curves of the compounds and calculate the EC50 and CC50 values (see Table 1 for the results).”

[3] = Hepatocyte metabolic stability test; type: in vitro ADME, Human; conditions: for half-life at 1 μM / hepatocyte CLint at 1 μM: tested compounds 1 μM; for CLint scaled at 1 μM: Human, scaled with 120 × 10^6 cells/g liver and 21 g liver/kg, read-out: CLint, hepatic
Experimental: (§2) Test method: The compounds to be tested will be co-incubated with human hepatocyte suspension at a concentration of 1 μM. At different time points, ice acetonitrile containing internal standard was added to the system to terminate the reaction, after vortexing and centrifugation, the supernatant was taken, and the test compounds in the supernatant were analyzed by LC-MS/MS method. The in vitro intrinsic clearance rate was calculated according to the clearance rate constant of the tested compounds in the incubation system. 7-ethoxycoumarin and 7-hydroxycoumarin were used as positive controls, and the blank culture medium incubation group without hepatocytes was used as negative control.
(§3) Data analysis: The ratio of the peak areas of the analyte/internal standard (Aanalyte/AIS) was obtained by the instrument, and the remaining percentage (% Control) was calculated from the ratio of Aanalyste/AIS in the sample at non-zero time point to that at the zero time point. Ln (% Control) was plotted against incubation time and linearly fitted. The clearance constant (k, min^−1), clearance half-life (T1/2, min), and in vitro intrinsic clearance rate (CLint, hepatocyte, μL/min/10^6 cells) of the tested compounds were calculated using the following equation.
(§4) CLint,hepatic (mL/min/kg) refers to the inherent clearance rate of liver in vivo.

[4] = test system: human hepatocyte suspension; test: Hepatocyte metabolic stability test; type: in vitro ADME; conditions: for k: Human hepatocytes 1.0 × 10^6 cells/mL, tested compounds 1 μM, positive control 3 μM
Experimental: as §2, §3, §4

[5] = test system: MRC5 cells; test: in vitro; type: cell-based; conditions: human, 7 days
Experimental: as §1, with “compounds.” for “compounds. Software GraphPad Prism was used to analyze the dose-response curves of the compounds and calculate the EC50 and CC50 values (see Table 1 for the results).”

[6] = cited from earlier work
[7] = test system: CMV virus; conditions: after 28 days of treatment; cited from earlier work
[8] = Human betaherpesvirus 5, 168 h, HCMV with GFP reporter, MRC5 cells, 7 days, read-out: EC50
[9] = Human betaherpesvirus 5, MRC5, Table 1, read-out: activity in inhibiting HCMV
[10] = hepatocyte suspension, Human hepatocytes 1.0 × 10^6 cells/mL, positive control 3 μM
[11] = Human hepatocytes 1.0 × 10^6 cells/mL, positive control 3 μM

SMILES	EC50 [1, 8] [nM]	EC50 [1, 9] [nM]	CC50 at 7 days [2] [nM]	other results
COc1cccc(N2CCN(C3=Nc4c(F)cccc4[C@H](CC(=O)O)N3c3cc(C(F)(F)F)ccc3OC)CC2)c1 (racemic) [Letermovir (racemic), letermovir (racemic), reference compound]				EC50 ([1]; HCMV with GFP reporter, MRC5 cells, 7 days, read-out: EC50): 3.92 nM
COc1cccc(N2CCN(C3=Nc4c(F)cccc4C(CC(=O)OCc4oc(=O)oc4C)N3c3cc(C(F)(F)F)ccc3OC)C[C@H]2C)c1 (single isomer, unassigned) [Compound I-41]	0.15	< 1	39300	
CCOc1ccc2ccc(=O)oc2c1 [7-ethoxycoumarin]				half-life at 1 μM [3, 10]: 0.332 h; hepatocyte CLint at 1 μM [3, 10]: 34.8 µL/min/1e6 cells; CLint scaled at 1 μM ([3]; hepatocyte suspension): 87.7 mL/min/kg; k [4]: 0.0348 min⁻¹
O=c1ccc2ccc(O)cc2o1 [7-hydroxycoumarin]				half-life [3, 11]: 0.288 h; hepatocyte CLint at 1 μM [3, 11]: 40.1 µL/min/1e6 cells; CLint scaled at 1 μM ([3]; hepatocytes): 101 mL/min/kg; k [4]: 0.0401 min⁻¹
COC(=O)OCOC(=O)C[C@H]1c2cccc(F)c2N=C(N2CCN(c3cccc(OC)c3)CC2)N1c1cc(C(F)(F)F)ccc1OC [Compound I-5]	2.62		> 50000	
COc1cccc(N2CCN(C3=Nc4c(F)cccc4[C@H](CC(=O)OCOC(C)=O)N3c3cc(C(F)(F)F)ccc3OC)CC2)c1 [Compound I-8]	1.47		> 50000	
COc1cccc(N2CCN(C3=Nc4c(F)cccc4[C@H](CC(=O)OCOC(=O)C(C)(C)C)N3c3cc(C(F)(F)F)ccc3OC)CC2)c1 [Compound I-13]	2.76		> 50000	
COc1cccc(N2CCN(C3=Nc4c(F)cccc4[C@H](CC(=O)OCc4oc(=O)oc4C)N3c3cc(C(F)(F)F)ccc3OC)CC2)c1 [Compound I-17]	1.52			CC50 [5]: 43500 nM
COc1cccc(N2CC3CCC(C2)N3C2=Nc3c(F)cccc3C(CC(=O)O)N2c2cc(C(F)(F)F)ccc2OC)c1 (stereo not shown) [Compound I-19]	2.81		23800	
COc1cccc(N2CCN(C3=Nc4c(F)cccc4C(CC(=O)O)N3c3cc(C(F)(F)F)ccc3OC)C[C@H]2C)c1 (stereo partly shown) [Compound I-23]	0.28	< 1	> 50000	
COc1cc(N2CCN(C3=Nc4c(F)cccc4C(CC(=O)O)N3c3cc(C(F)(F)F)ccc3OC)C[C@H]2C)ccn1 (stereo partly shown) [Compound I-24]	0.46	< 1	> 50000	
COc1cccc(N2CCN(C3=Nc4c(F)cccc4[C@H](CC(=O)O)N3c3cc(C(F)(F)F)ccc3OC)C[C@H]2C)c1 [Compound I-25]	0.17	< 1	> 50000	half-life at 1 μM [3, 10]: 74.9 h; hepatocyte CLint at 1 μM [3, 10]: 0.154 µL/min/1e6 cells; CLint scaled at 1 μM ([3]; hepatocyte suspension): 0.388 mL/min/kg; k [4]: 0.000154 min⁻¹; metabolic stability of human hepatocytes compared with letermovir ([4]; human hepatocytes): better metabolic stability
COc1cc(N2CCN(C3=Nc4c(F)cccc4[C@H](CC(=O)O)N3c3cc(C(F)(F)F)ccc3OC)C[C@H]2C)ccn1 [Compound I-26]	0.26	< 1	> 50000	
COc1cccc(N2CCN(C3=Nc4c(F)cccc4[C@H](CC(=O)OCOC(C)=O)N3c3cc(C(F)(F)F)ccc3OC)C[C@H]2C)c1 [Compound I-33]	0.06	< 1	> 50000	
COc1cc(N2CCN(C3=Nc4c(F)cccc4C(CC(=O)OCOC(C)=O)N3c3cc(C(F)(F)F)ccc3OC)CC2C)ccn1 (stereo not shown) [Compound I-49]	0.46	< 1	> 50000	
COc1cc(N2CCN(C3=Nc4c(F)cccc4[C@H](CC(=O)OCOC(C)=O)N3c3cc(C(F)(F)F)ccc3OC)C[C@H]2C)ccn1 [Compound I-53]	0.32	< 1	> 50000	
COc1cccc(N2CCN(C3=Nc4c(F)cccc4[C@H](CC(=O)O)N3c3cc(C(F)(F)F)ccc3OC)CC2)c1 [Letermovir, letermovir]				bioavailability ([6]; hematopoietic cell transplant (HCT) recipients, letermovir alone): about 37%; bioavailability ([6]; with cyclosporin): 85%; CMV virus detection in the patient [7]: no CMV virus was detected; half-life at 1 μM [3, 10]: 5.27 h; hepatocyte CLint at 1 μM [3, 10]: 2.2 µL/min/1e6 cells; CLint scaled at 1 μM ([3]; hepatocyte suspension): 5.53 mL/min/kg; k [4]: 0.0022 min⁻¹
